According to patent US20080234276A1, “Heterocyclic Triazines as Hypoxic Selective Protein Kinase Inhibitors” (SENTINEL ONCOLOGY LIMITED, priority 2005, published 2008):

Tests used:
Type in all cases: biochemical
p70S6K (h) = biological target: T1, p70S6K (h) (Homo sapiens, UniProt P23443); assay: p70S6K (h) kinase assay (Upstate, 33P-ATP filtermat); settings: 100 uM of inhibitor, ATP 15 uM; for inhibition at 100 µM: read-out: P70S6 (h) % inhibition
T1 construct: purchased Upstate Ltd
Description: (§1) The compounds of the invention prepared in Examples 1-32 were tested for kinase inhibition against a range of common protein kinases. All kinase assays were conducted at Upstate Ltd, Gemini Crescent, Dundee Technology Park, Dundee, DD2 1SW, UK in accordance with its standard protocols as follows:
(§2) In a final reaction volume of 25 μl, p70S6K (h) (5-10 mU) is incubated with 8 mM MOPS pH 7.0, 0.2 mM EDTA, 100 μM KKRNRTLTV, 10 mM MgAcetate and [[…]-33P-ATP] (specific activity approx. 500 cpm/pmol, concentration as required). The reaction is initiated by the addition of the MgATP mix. After incubation for 40 minutes at room temperature, the reaction is stopped by the addition of 5 μl of a 3% phosphoric acid solution. 10 μl of the reaction is then spotted onto a P30 filtermat and washed three times for 5 minutes in 75 mM phosphoric acid and once in methanol prior to drying and scintillation counting.
(§3) Data for compounds. ATP concentrations are: Arg=45 uM; abl=45 uM; AuroraA=15 uM; Chk1=90 uM; KDR=90 uM; P70S6=15 uM. Figures represent the % inhibition when tested at 100 uM of inhibitor.

Aurora-A (h) = biological target: T2, Aurora-A (h) (Homo sapiens, UniProt O14965); assay: Aurora-A (h) kinase assay (Upstate, 33P-ATP filtermat); settings: 100 uM of inhibitor, ATP 15 uM; for inhibition at 100 µM: read-out: AuroraA (h) % inhibition
T2 construct: purchased Upstate Ltd
T2 sequence (O14965 1-403): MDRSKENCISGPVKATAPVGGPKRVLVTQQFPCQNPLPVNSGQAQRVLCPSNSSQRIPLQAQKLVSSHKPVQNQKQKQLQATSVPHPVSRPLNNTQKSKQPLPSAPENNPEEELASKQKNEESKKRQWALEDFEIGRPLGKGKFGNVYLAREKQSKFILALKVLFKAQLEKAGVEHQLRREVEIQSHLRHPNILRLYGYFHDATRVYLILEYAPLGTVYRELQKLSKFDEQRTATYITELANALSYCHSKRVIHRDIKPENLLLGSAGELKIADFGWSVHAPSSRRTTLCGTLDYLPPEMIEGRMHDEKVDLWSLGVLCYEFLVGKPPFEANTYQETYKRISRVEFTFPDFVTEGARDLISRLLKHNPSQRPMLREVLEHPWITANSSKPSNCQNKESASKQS
Description: as §1
as §2, with “Aurora-A” for “p70S6K”, “200” for “100”, “LRRASLG (Kemptide),” for “KKRNRTLTV,”, “[…]-33P-ATP]” for “[[…]-33P-ATP]”, “50” for “75”
as §3

Abl (h) = biological target: T3, Abl (h) (Homo sapiens, UniProt P00519); assay: Abl (h) kinase assay (Upstate, 33P-ATP filtermat); settings: 100 uM of inhibitor; ATP 45 uM
T3 construct: purchased Upstate Ltd
T3 sequence (P00519 whole entry): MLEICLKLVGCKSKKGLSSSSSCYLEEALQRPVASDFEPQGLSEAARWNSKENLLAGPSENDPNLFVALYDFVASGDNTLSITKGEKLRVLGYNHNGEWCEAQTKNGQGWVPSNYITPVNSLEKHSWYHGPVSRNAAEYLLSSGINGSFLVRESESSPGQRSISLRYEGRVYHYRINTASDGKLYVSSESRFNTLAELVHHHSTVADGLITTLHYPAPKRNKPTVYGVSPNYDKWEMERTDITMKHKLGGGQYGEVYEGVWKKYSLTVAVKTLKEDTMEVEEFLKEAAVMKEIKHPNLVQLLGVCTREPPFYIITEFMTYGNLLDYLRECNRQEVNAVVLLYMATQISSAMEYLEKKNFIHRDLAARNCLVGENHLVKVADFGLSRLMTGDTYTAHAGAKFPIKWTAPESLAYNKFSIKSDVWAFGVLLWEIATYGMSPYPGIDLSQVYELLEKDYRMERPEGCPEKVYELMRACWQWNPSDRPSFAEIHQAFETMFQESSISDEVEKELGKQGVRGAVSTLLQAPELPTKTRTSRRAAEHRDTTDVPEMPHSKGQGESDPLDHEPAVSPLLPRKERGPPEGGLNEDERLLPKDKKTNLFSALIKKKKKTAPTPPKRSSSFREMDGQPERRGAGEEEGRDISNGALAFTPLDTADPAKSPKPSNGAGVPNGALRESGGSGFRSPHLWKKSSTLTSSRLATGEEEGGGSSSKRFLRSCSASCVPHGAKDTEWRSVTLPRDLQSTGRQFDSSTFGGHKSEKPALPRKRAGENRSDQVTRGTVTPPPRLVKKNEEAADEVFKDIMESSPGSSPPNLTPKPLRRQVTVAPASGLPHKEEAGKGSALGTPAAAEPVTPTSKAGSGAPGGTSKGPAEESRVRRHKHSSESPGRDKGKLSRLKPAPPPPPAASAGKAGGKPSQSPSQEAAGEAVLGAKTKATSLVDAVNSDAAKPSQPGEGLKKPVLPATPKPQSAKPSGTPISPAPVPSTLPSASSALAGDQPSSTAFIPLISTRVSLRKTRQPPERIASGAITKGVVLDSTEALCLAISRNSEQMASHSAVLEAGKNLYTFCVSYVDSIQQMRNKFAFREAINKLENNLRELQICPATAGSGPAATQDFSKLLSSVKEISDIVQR
Description: as §1
as §2, with “Abl” for “p70S6K”, “50” for “100”, “EAIYAAPFAKKK,” for “KKRNRTLTV,”
as §3

Arg (h) = biological target: T4, Arg (h) (Homo sapiens, UniProt P42684); assay: Arg (h) kinase assay (Upstate, 33P-ATP filtermat); settings: 100 uM of inhibitor; ATP 45 uM
T4 construct: purchased Upstate Ltd
T4 sequence (P42684 whole entry): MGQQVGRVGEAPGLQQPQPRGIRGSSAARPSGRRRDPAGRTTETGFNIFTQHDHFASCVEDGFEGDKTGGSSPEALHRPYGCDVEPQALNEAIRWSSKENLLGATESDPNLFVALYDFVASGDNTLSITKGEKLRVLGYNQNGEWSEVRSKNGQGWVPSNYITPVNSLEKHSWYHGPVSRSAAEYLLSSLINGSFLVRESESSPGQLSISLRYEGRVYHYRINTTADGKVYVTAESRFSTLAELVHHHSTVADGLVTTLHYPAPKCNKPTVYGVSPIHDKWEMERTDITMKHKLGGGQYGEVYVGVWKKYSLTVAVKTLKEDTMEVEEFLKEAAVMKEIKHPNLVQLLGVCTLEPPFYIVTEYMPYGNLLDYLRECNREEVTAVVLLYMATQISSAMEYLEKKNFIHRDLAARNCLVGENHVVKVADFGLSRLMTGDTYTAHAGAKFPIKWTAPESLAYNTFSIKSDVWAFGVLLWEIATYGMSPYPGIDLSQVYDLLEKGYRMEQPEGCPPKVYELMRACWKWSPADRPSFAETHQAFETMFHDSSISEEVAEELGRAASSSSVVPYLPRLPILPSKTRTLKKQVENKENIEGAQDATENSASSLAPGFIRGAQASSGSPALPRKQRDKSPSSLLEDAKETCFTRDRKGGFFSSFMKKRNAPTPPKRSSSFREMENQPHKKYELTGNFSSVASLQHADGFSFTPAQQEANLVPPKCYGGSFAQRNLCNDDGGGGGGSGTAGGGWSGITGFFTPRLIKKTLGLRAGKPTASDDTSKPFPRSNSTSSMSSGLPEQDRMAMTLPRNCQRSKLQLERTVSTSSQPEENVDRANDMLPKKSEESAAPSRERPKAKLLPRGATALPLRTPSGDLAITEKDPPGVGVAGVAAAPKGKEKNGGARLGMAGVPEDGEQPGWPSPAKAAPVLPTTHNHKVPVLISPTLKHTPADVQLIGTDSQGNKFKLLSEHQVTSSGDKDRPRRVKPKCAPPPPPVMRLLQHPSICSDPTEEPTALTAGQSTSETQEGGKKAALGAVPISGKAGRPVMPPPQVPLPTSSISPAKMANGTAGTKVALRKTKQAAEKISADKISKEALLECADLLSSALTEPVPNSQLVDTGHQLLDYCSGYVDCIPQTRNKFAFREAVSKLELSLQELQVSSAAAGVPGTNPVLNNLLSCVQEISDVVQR
Description: as §1
as §2, with “Arg” for “p70S6K”, “50” for “100”, “EAIYAAPFAKKK,” for “KKRNRTLTV,”
as §3

CHK1 (h) = biological target: T5, CHK1 (h) (Homo sapiens, UniProt O14757); assay: CHK1 (h) kinase assay (Upstate, 33P-ATP filtermat); settings: 100 uM of inhibitor; ATP 90 uM
T5 construct: purchased Upstate Ltd
T5 sequence (O14757 1-476): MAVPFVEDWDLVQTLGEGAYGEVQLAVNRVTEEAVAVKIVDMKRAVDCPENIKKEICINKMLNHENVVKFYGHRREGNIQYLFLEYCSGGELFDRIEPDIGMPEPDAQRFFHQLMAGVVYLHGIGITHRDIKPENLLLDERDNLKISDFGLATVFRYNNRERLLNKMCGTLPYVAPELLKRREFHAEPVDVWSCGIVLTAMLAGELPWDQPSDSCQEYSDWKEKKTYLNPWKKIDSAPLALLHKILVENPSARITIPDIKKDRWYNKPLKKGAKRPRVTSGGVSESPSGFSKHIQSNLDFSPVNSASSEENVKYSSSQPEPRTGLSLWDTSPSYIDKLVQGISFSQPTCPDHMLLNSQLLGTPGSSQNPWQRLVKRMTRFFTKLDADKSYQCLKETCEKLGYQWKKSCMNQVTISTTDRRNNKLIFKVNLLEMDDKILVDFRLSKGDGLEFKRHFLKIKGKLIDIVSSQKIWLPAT
Description: as §1
as §2, with “CHK1” for “p70S6K”, “200” for “100”, “[…],” for “KKRNRTLTV,”, “[…]-33P-ATP]” for “[[…]-33P-ATP]”
as §3

KDR (h) = biological target: T6, KDR (h) (Homo sapiens, UniProt P35968); assay: KDR (h) kinase assay (Upstate, 33P-ATP filtermat); settings: 100 uM of inhibitor; ATP 90 uM
T6 construct: purchased Upstate Ltd
T6 sequence (P35968 20-1356): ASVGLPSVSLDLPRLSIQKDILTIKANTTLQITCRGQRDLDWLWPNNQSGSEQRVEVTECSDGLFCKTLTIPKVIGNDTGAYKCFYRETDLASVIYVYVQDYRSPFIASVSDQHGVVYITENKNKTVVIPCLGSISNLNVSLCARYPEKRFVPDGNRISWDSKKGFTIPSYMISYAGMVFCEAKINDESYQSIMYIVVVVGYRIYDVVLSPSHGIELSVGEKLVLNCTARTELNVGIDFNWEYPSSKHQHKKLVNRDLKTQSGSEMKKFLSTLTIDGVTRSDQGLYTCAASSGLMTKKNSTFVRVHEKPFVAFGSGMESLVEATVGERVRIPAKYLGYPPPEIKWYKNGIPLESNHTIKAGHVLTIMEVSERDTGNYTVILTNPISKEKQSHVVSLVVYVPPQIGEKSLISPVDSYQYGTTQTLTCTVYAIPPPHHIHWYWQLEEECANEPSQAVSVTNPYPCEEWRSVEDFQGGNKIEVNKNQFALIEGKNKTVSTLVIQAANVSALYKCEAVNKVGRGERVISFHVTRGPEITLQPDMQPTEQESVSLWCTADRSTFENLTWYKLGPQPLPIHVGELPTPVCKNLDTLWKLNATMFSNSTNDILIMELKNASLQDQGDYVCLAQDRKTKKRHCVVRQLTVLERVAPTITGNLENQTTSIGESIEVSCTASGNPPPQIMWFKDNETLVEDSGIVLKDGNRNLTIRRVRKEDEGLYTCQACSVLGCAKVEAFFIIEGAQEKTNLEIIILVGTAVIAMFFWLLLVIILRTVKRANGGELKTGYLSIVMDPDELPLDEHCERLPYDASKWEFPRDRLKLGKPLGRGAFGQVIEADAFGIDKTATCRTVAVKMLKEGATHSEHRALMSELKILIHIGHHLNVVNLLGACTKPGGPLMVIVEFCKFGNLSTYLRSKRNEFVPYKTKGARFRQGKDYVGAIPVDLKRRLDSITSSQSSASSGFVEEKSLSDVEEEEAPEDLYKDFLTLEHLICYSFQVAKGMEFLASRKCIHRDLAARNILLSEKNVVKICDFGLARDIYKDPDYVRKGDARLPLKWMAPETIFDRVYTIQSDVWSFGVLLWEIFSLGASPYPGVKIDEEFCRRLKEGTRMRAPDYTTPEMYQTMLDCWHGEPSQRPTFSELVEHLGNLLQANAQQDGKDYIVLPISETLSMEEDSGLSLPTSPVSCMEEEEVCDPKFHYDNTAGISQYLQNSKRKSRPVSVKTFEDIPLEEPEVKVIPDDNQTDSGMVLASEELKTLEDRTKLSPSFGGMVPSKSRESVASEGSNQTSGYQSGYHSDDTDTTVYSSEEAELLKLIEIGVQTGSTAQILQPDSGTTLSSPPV
Description: as §1
as §2, with “KDR” for “p70S6K”, “0.33 mg/ml myelin basic protein,” for “100 μM KKRNRTLTV,”
as §3

T1 sequence (P23443 whole entry): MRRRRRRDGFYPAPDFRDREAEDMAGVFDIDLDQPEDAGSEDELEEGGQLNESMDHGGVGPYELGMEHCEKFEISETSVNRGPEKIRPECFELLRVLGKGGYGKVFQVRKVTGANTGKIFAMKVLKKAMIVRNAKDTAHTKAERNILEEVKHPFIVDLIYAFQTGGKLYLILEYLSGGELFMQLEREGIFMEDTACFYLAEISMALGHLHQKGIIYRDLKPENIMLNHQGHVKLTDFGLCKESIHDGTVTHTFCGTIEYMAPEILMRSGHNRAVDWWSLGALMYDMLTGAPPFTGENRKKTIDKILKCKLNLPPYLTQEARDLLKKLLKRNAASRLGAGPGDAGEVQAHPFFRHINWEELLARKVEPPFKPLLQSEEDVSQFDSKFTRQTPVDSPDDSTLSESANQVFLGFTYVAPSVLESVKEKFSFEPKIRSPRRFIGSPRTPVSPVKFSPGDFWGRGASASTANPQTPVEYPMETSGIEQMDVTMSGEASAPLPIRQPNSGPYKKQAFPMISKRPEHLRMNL

| inhibition at 100 µM (p70S6K (h)) [%] | inhibition at 100 µM (Aurora-A (h)) [%] | inhibition at 100 µM (Abl (h)) [%] | inhibition at 100 µM (Arg (h)) [%] | inhibition at 100 µM (CHK1 (h)) [%] | AuroraA (h) % inhibition (Aurora-A (h)) [%] | Abl (h) % inhibition (Abl (h)) [%] | Arg (h) % inhibition (Arg (h)) [%] | Chk1 (h) % inhibition (CHK1 (h)) [%] | P70S6 (h) % inhibition (p70S6K (h)) [%] | KDR (h) % inhibition (KDR (h)) [%] | inhibition at 100 µM (KDR (h)) [%] | Structure (SMILES) |
| --- | --- | --- | --- | --- | --- | --- | --- | --- | --- | --- | --- | --- |
| 9 | 68 | 65 | 71 | 21 |  |  |  |  |  |  |  | c1cncc(Nc2nnc3ccccc3n2)c1 [Example 3, Benzo[1,2,4]triazin-3-yl-pyridin-3-yl-amine] |
|  |  |  |  |  | 24 | 83 | 78 | 7 |  |  |  | [O-][n+]1nc(Nc2ccc(N3CCNCC3)cc2)nc2ccccc21 [Example 5, (1-Oxy-benzo[1,2,4]triazin-3-yl)-(4-piperazin-1-yl-phenyl)-amine] |
|  | 41 | 89 | 92 | 33 |  |  |  |  |  |  |  | c1ccc2nc(Nc3ccc(N4CCNCC4)cc3)nnc2c1 [Example 6, Benzo[1,2,4]triazin-3-yl-(4-piperazin-1-yl-phenyl)-amine] |
|  |  |  |  |  | 98 | 86 | 81 | 31 | 99 | 98 |  | Nc1nc2ccc(-c3cn[nH]c3)cc2[n+]([O-])n1 [Example 7, 1-Oxy-7-(1H-pyrazol-4-yl)-benzo[1,2,4]triazin-3-ylamine] |
| 97 | 100 | 87 | 82 | 26 |  |  |  |  |  |  | 96 | Nc1nnc2cc(-c3cn[nH]c3)ccc2n1 [Example 8, 7-(1H-Pyrazol-4-yl)-benzo[1,2,4]triazin-3-ylamine] |
|  | 37 | 36 | 40 | 32 |  |  |  |  |  |  |  | Cc1cc(Nc2nnc3ccccc3n2)n[nH]1 [Example 11, Benzo[1,2,4]triazin-3-yl-(5-methyl-1H-pyrazol-3-yl)-amine] |

| Structure (SMILES) | inhibition at 100 µM (p70S6K (h)) [%] | inhibition at 100 µM (Aurora-A (h)) [%] | inhibition at 100 µM (Abl (h)) [%] | inhibition at 100 µM (Arg (h)) [%] | inhibition at 100 µM (CHK1 (h)) [%] | AuroraA (h) % inhibition (Aurora-A (h)) [%] | Abl (h) % inhibition (Abl (h)) [%] | Arg (h) % inhibition (Arg (h)) [%] | Chk1 (h) % inhibition (CHK1 (h)) [%] | P70S6 (h) % inhibition (p70S6K (h)) [%] | KDR (h) % inhibition (KDR (h)) [%] | inhibition at 100 µM (KDR (h)) [%] |
| --- | --- | --- | --- | --- | --- | --- | --- | --- | --- | --- | --- | --- |
| [O-][n+]1nc(Nc2ccc(N3CCNCC3)nc2)nc2ccccc21 [Example 20, (1-Oxy-benzo[1,2,4]triazin-3-yl)-(6-piperazin-1-yl-pyridin-3-yl)-amine] |  |  |  |  |  | 52 | 72 | 77 | 1 |  |  |  |
